The target in assay [1] is T1, MALT1 (Homo sapiens, UniProt Q9UDY8).
T1 construct: Avi-tagged FL MALT-1 (Pharmaron, stored at −70° C.); Avi tag
T1 sequence (Q9UDY8 1-824): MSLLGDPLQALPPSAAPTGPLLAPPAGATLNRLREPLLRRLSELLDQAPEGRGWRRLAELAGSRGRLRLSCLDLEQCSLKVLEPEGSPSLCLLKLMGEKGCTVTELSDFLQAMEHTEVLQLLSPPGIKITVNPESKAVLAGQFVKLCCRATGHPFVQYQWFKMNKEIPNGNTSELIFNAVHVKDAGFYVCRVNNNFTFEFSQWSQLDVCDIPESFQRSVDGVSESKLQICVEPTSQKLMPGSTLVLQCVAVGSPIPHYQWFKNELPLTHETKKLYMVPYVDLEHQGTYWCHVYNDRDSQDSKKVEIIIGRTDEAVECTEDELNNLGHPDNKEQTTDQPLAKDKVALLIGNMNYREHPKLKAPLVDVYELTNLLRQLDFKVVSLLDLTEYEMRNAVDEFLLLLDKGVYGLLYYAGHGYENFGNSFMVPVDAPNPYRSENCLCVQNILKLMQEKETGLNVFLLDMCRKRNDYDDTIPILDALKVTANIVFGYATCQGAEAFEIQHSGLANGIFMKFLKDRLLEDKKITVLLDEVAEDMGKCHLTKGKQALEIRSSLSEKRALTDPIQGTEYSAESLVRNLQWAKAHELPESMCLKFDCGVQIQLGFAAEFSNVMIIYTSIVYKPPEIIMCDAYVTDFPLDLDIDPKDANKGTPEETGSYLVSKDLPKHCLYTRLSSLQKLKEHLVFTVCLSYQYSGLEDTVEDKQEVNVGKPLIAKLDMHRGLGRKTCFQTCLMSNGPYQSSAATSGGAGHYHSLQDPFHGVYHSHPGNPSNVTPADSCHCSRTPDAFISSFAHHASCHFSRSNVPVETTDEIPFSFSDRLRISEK
The assay is described as follows: MALT-1 Fluorogenic Peptide Cleavage Assay (MALT1 inhibition assay). It counts as biochemical. The conditions noted are these: Avi-tagged FL MALT-1, Ac-LRSR-AMC peptide substrate, 30 min pre-incubation, 90 min reaction. The gist of the method:
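IC50 from sigmoidal fits of % inhibition, with fluorescence (ex 342, em 441 nm) from AMC released from the quenched LRSR peptide after 90 min at room temperature. Full-length Avi-tagged MALT1 saw compound for 30 min first; final DMSO 2%.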

Assay [2] relates to NF-kB. Kind of assay: NF-kB reporter assay in Jurkat cells stimulated with aCD3/aCD28/PMA. The note with it: Homo sapiens, Jurkat, Jurkat cells, 1 hr compound incubation, aCD3/aCD28/PMA stimulation 4 hr, One-Glo readout; read-out: NF-kB Reporter Assay IC50. It counts as cell-based. The method, boiled down: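 Stimulation used final aCD3 5 μg/mL, aCD28 5 μg/mL and PMA 0.03 μg/mL for 4 hr at 37° C, after 1 hr compound pretreatment of 25,000 serum-starved Jurkat cells per well. One-Glo luminescence gave IC50 values.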
On the technique in general: In a reporter assay the amount or activity of a reporter protein is the signal.

Molecules are shown by their SMILES.

Usually IC50 stands for the point on the concentration scale where inhibition reaches its midpoint. `Cn1ncc2cccc(NS(=O)(=O)c3ccc(-n4nc(C(F)(F)F)c5c4CCOC5)nc3)c21` [Example I-298]: the half-inhibitory concentration (IC50) in assay [1] is above 2.5 µM; in assay [2], below 0.4 µM.
Regarding `COc1ncc2cnn(C)c2c1NS(=O)(=O)c1ccc(-c2cnn3c2OCCC3)nc1` [Example I-299], the IC50 in assay [1] and in assay [2] was above 2.5 µM each time.
As to `COc1ncc2cnn(C)c2c1NS(=O)(=O)c1ccc(-n2nc(C(F)(F)F)c3c2CCOC3)nc1` [Example I-300, N-(6-methoxy-1-methyl-1H-pyrazolo[4,3-c]pyridin-7-yl)-6-(3-(trifluoromethyl)-6,7-dihydropyrano[4,3-c]pyrazol-1(4H)-yl)pyridine-3-sulfonamide], the IC50 in assay [1] was below 0.4 µM; in assay [2] it was 0.4 to 1 µM.
For `COc1ncc2cnn(C)c2c1NS(=O)(=O)c1ccc(-c2cnn3c2COCC3)nc1` [Example I-301], in that order: 1 to 2.5 µM and 1 to 2.5 µM.
As for `Cn1ncc2cccc(NS(=O)(=O)c3ccc(-c4cnn5c4OCCC5)nc3)c21` [Example I-302, N-(1-methylindazol-7-yl)-6-{5H,6H,7H-pyrazolo[3,2-b][1,3]oxazin-3-yl}pyridine-3-sulfonamide], the IC50 in assay [1] was above 2.5 µM; in assay [2], below 0.4 µM.
With `COc1ccc2cnn(C)c2c1NS(=O)(=O)c1ccc(-c2cnn3c2OCCC3)nc1` [Example I-303, 6-(6,7-dihydro-5H-pyrazolo[5,1-b][1,3]oxazin-3-yl)-N-(6-methoxy-1-methyl-1H-indazol-7-yl)pyridine-3-sulfonamide], the results for the IC50 in assay [1] and in assay [2] were above 2.5 µM and 0.4 to 1 µM, respectively.
On to `COc1ccc2cnn(C)c2c1NS(=O)(=O)c1ccc(-n2nc(C(F)(F)F)c3c2CCOC3)nc1` [Example I-304, N-(6-methoxy-1-methyl-1H-indazol-7-yl)-6-(3-(trifluoromethyl)-6,7-dihydropyrano[4,3-c]pyrazol-1(4H)-yl)pyridine-3-sulfonamide], for which the IC50 in assay [1] and in assay [2] was below 0.4 µM in each case.
Turning to `COc1ncc2cnn(C)c2c1NS(=O)(=O)c1ccc(-c2nn(C)c3c2COCC3)nc1` [Example I-305], the IC50 in assay [1] was above 2.5 µM; in assay [2], 0.4 to 1 µM.
On to `Cn1nc(-c2ccc(S(=O)(=O)Nc3cccc4cnn(C)c34)cn2)c2c1CCOC2` [Example I-306, 6-(1-methyl-1,4,6,7-tetrahydropyrano[4,3-c]pyrazol-3-yl)-N-(1-methyl-1H-indazol-7-yl)pyridine-3-sulfonamide], for which the results for the IC50 in assay [1] and in assay [2] were above 2.5 µM and below 0.4 µM, respectively.
As for `COc1ccc2cnn(C)c2c1NS(=O)(=O)c1ccc(-c2nn(C)c3c2COCC3)nc1` [Example I-307], the IC50 is above 2.5 µM in assay [1] and 0.4 to 1 µM in assay [2].
Turning to `COc1ccc2cnn(C)c2c1NS(=O)(=O)c1ccc(-c2cnn3c2COCC3)nc1` [Example I-308], the half-maximal inhibitory concentration (IC50) is 1 to 2.5 µM in assay [1] and below 0.4 µM in assay [2].
For `Cn1ncc2cccc(NS(=O)(=O)c3ccc(-c4cnc5n4CCOC5)nc3)c21` [Example I-309, 6-(5,6-dihydro-8H-imidazo[2,1-c][1,4]oxazin-3-yl)-N-(1-methyl-1H-indazol-7-yl)pyridine-3-sulfonamide], in that order: above 2.5 µM and below 0.4 µM.
For `COc1ccc2cnn(C)c2c1NS(=O)(=O)c1ccc(-c2cnn3c2COCCC3)nc1` [Example I-310, 6-(7,8-dihydro-4H,6H-pyrazolo[5,1-c][1,4]oxazepin-3-yl)-N-(6-methoxy-1-methyl-1H-indazol-7-yl)pyridine-3-sulfonamide], the IC50 in assay [1] and in assay [2] was above 2.5 µM in each case.
Regarding `COc1ncc2cnn(C)c2c1NS(=O)(=O)c1ccc(-c2cnn3c2COCCC3)nc1` [Example I-311], the IC50 in assay [1] and in assay [2] was above 2.5 µM throughout.
Turning to `COc1ccc2cnn(C)c2c1NS(=O)(=O)c1ccc(-c2cnc3n2CCOC3)nc1` [Example I-312, 6-(5,6-dihydro-8H-imidazo[2,1-c][1,4]oxazin-3-yl)-N-(6-methoxy-1-methyl-1H-indazol-7-yl)pyridine-3-sulfonamide], the IC50 in assay [1] fell in the range of 1 to 2.5 µM; in assay [2], 0.4 to 1 µM.
Take `Cn1ncc2cccc(NS(=O)(=O)c3ccc(-c4cnn5c4COCCC5)nc3)c21` [Example I-313]: the results for the IC50 in assay [1] and in assay [2] were above 2.5 µM and below 0.4 µM, respectively.
Take `CN1CCn2ncc(-c3ccc(S(=O)(=O)Nc4cccc5cnn(C)c45)cn3)c2C1` [Example I-314, 6-{5-methyl-4H,6H,7H-pyrazolo[1,5-a]pyrazin-3-yl}-N-(1-methylindazol-7-yl)pyridine-3-sulfonamide]: the IC50 in assay [1] is above 2.5 µM; in assay [2], 1 to 2.5 µM.
For `COc1ccc2cnn(C)c2c1NS(=O)(=O)c1ccc(-c2cnn3c2CN(C)CC3)nc1` [Example I-315], the IC50 in assay [1] and in assay [2] was above 2.5 µM in each case.
In the case of `[2H]C([2H])([2H])Oc1ccc2cnn(C([2H])([2H])[2H])c2c1NS(=O)(=O)c1ccc(-n2cc(C(F)(F)F)cn2)nc1` [Example I-316, N-(6-(methoxy-d3)-1-(methyl-d3)-1H-indazol-7-yl)-6-(4-(trifluoromethyl)-1H-pyrazol-1-yl)pyridine-3-sulfonamide], the IC50 in assay [1] and in assay [2] was below 0.4 µM in each case.

The values are drawn from patent US20240150365A1 (Hotspot Therapeutics, Inc., priority 2022, published 2024).
